“And” between values parts separate entries of the source, which are not always exact repeats. Equal values may be shown once.
Tested on: sex-sorted sperm cells
Assay: Percent intact acrosomes (PIA) of sex sorted sperm post-thaw
Type: cell-based, bovine
Settings: for PIA: 3 step
From the text: In the tables below: VAP (average path velocity (μm/s)); VSL (straight-line velocity (μm/s)); VCL (curvilinear velocity (μm/s)); ALH (average lateral head displacement (μm)); BCF (the number of times the sperm head crosses the mean path/s in Hz); STR (percent straight-line sperm motility); LIN (percent linear sperm motility); PIA (percent intact acrosomes); motile (percent motile sperm); and progressive (percent progressively motile sperm).

vitamin B12
PIA (percent intact acrosomes) (0.5 mg/ml, 2 step F, 3 hrs post-thaw, Bulls 1-5): 84% and 87% and 88% and 79% and 74%
PIA (.15 mg/ml, Holstein, 1M/straw, 3 hr post-thaw): 66
PIA (.15 mg/ml, Holstein, 2.1M/straw, 3 hr post-thaw): 72
PIA (.15 mg/ml, Jersey, 2.1M/straw, 3 hr post-thaw): 63
PIA (.25 mg/ml, Holstein, 1M/straw, 3 hr post-thaw): 58
PIA (.25 mg/ml, Holstein, 2.1M/straw, 3 hr post-thaw): 76
PIA (.25 mg/ml, Holstein, 5M/straw, 3 hr post-thaw): 68
PIA (.25 mg/ml, Jersey, 2.1M/straw, 3 hr post-thaw): 78
PIA (.35 mg/ml, Holstein, 1M/straw, 3 hr post-thaw): 70
PIA (.35 mg/ml, Holstein, 2.1M/straw, 3 hr post-thaw): 60
PIA (.35 mg/ml, Holstein, 5M/straw, 3 hr post-thaw): 69
PIA (.5 mg/ml, Holstein, 5M/straw, 3 hr post-thaw): 50

O=C(O)CCC(=O)C(=O)O [AKG, Alpha-ketoglutarate]
PIA (Holstein 3 hr post-thaw (1st block), .25 mg/ml): 89
PIA (Holstein 3 hr post-thaw (1st block), .35 mg/ml): 80
PIA (Holstein 3 hr post-thaw (1st block), .45 mg/ml): 80
PIA (Holstein 3 hr post-thaw (2nd block), .25 mg/ml): 89
PIA (Holstein 3 hr post-thaw (2nd block), .35 mg/ml): 80
PIA (Holstein 3 hr post-thaw (2nd block), .45 mg/ml): 80
PIA (Holstein 6 hr post-thaw (1st block), .25 mg/ml): 73
PIA (Holstein 6 hr post-thaw (1st block), .35 mg/ml): 85
PIA (Holstein 6 hr post-thaw (1st block), .45 mg/ml): 79
PIA (Holstein 6 hr post-thaw (2nd block), .25 mg/ml): 73
PIA (Holstein 6 hr post-thaw (2nd block), .35 mg/ml): 85
PIA (Holstein 6 hr post-thaw (2nd block), .45 mg/ml): 79
PIA (Jersey 3 hr post-thaw, .25 mg/ml): 62
PIA (Jersey 3 hr post-thaw, .35 mg/ml): 54
PIA (Jersey 3 hr post-thaw, .45 mg/ml): 71

Reference: patent publication US10226041B2, “Compositions and methods for improving the quality of processed sperm” (Inguran, LLC, priority 2011, dated 2019)
